Source: patent US20210116454A1, “METHODS FOR TREATING A HEMATOLOGICAL CANCER AND THE USE OF COMPANION BIOMARKERS FOR 2-(2,6-DIOXOPIPERIDIN-3-YL)-4-((2-FLUORO-4-((3-MORPHOLINOAZETIDIN-1-YL)METHYL)BENZYL)AMINO)ISOINDOLINE-1,3-DIONE” (CELGENE CORPORATION, priority 2019, published 2021)
Like-named read-outs stand apart in the source and are kept apart here.

Tests used:
Assay type in all cases: cell-based
[1] = system: KARPAS-422; assay: 5-day viable cell number and apoptosis (7-AAD exclusion/Annexin V flow cytometry)
Summary of the method: (§1)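 5 d tx, escalating doses, DLBCL lines; viable cells counted; apoptosis via 7-AAD exclusion/Annexin V by flow.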

[2] = system: SU-DHL-16; assay: as above
Summary of the method: as §1

[3] = system: OCI-Ly10; assay: as above
Summary of the method: as §1

[4] = system: DLBCL cell lines; assay: Panel of twenty three DLBCL cell lines, 5-day viable cells and apoptosis
Procedure: Compound 1 activity was evaluated in a panel of twenty three DLBCL cell lines. The DLBCL panel includes seven cell lines classified as activated B-cell (ABC) subtype, thirteen cell lines classified as the germinal center B-cell (GCB) subtype, and three cell lines classified as primary mediastinal B-cell lymphoma (PMBL). […] Thus, eleven cell lines have a t(8;14)(q24;q32) and/or t(14;18)(q32;q21.3), corresponding to MYC and BCL2 gene rearrangements into an immunoglobulin (IG) heavy chain locus as well as additional rearrangements affecting BCL6 (Table 1). The translocation of MYC, BCL6, or BCL2 to an IG locus usually leads to high levels of mRNA and protein due to the active transcription driven by a constitutively active IG promoter. Therefore, the protein levels of these genes were monitored by Western blots, confirming the overexpression of BCL2, MYC, and/or BCL6 in all the cell lines evaluated (FIG. 1, panel A). Expressions of CRBN protein and known substrates, Ikaros, Aiolos, and ZFP91 were also evaluated (FIG. 1, panels B and C).
The panel of cell lines were treated with increasing doses of compounds for five days, at which time the number of viable cells was measured and the amount of apoptosis was determined by 7-AAD exclusion and Annexin V staining using flow cytometry. […] Overall, the sensitivity to Compound 1 was independent of cell of origin (COO), since ABC, GCB, and PMBL subtypes were sensitive to Compound 1 (Table 2).

[5] = system: SU-DHL-4 M-Parental; assay: Viable cells/apoptosis in doxorubicin-resistant and matching parental lines; conditions: for IC50: Homo sapiens
Procedure: (§2) The activity of Compound 1 was also evaluated in cell lines with acquired resistance to doxorubicin (Table 4). Doxorubicin-resistant cell lines (DoxoR) were generated by culturing the parental cell lines in vitro with increasing concentrations of doxorubicin for a long period of time (˜9 to 18 months) until they were able to grow in the presence of a relatively high concentration of doxorubicin (1 μM). Matching parental (M-Parent) cells were generated by maintaining the parental cells in culture without treatment for the same amount of time (˜9 to 18 months). The growth-inhibitory effect of doxorubicin on parental cells and the corresponding resistant cells was evaluated by measuring the number of viable cells and extent of apoptosis by 7-AAD exclusion and Annexin V staining using flow cytometry.
(§3) The effects of Compound 1 on the viability of doxorubicin-resistant versus parental cell lines was determined (FIG. 2; Table 5).

[6] = system: Oci-Ly10 M-Parental; assay: as above; conditions: for IC50: Homo sapiens
Procedure: as §2, §3

[7] = system: U2932 M-Parental; assay: as above; conditions: for IC50: Homo sapiens
Procedure: as §2, §3

[8] = system: WSU-DLCL2 DoxoR; assay: as above; conditions: for IC50: Homo sapiens
Procedure: as §2, §3

[9] = system: U2932 DoxoR; assay: as above; conditions: for IC50: Homo sapiens
Procedure: as §2, §3

[10] = system: Oci-Ly10 DoxoR; assay: as above; conditions: for IC50: Homo sapiens
Procedure: as §2, §3

[11] = system: WSU-DLCL2 M-Parental; assay: as above; conditions: for IC50: Homo sapiens
Procedure: as §2, §3

[12] = system: SU-DHL-4 DoxoR; assay: as above; conditions: for IC50: Homo sapiens
Procedure: as §2, §3

[13] = Homo sapiens, 120 h, KARPAS-422 cells, 5 days
[14] = Homo sapiens, KARPAS-422 cells (Table 3), read-out: IC50
[15] = Homo sapiens, 120 h, SU-DHL-16 cells, 5 days
[16] = Homo sapiens, SU-DHL-16 cells (Table 3), read-out: IC50
[17] = Homo sapiens, 120 h, OCI-Ly10 cells, 5 days
[18] = Homo sapiens, OCI-Ly10 cells (Table 3), read-out: IC50
[19] = WSUDLCL2, 120 h, 5 days, read-out: IC50
[20] = WSUDLCL2, read-out: Doxorubicin IC50

`O=C1CC[C@H](N2C(=O)c3cccc(NCc4ccc(CN5CC(N6CCOCC6)C5)cc4F)c3C2=O)C(=O)N1` [Compound 1, (S)-2-(2,6-dioxopiperidin-3-yl)-4-((2-fluoro-4-((3-morpholinoazetidin-1-yl)methyl)benzyl)amino)isoindoline-1,3-dione] was tested, and the EC50 [1, 13] was 32.5 nM, the Emax [1, 13] was 70.5% and the IC50 ([1]; Homo sapiens, 120 h, KARPAS-422 cells, 5 days, read-out: % Viable Cells IC50) was 5.4 nM. The IC50 [1, 14] was 45000 nM, the “% Viable Cells AUC” value ([1]; KARPAS-422 cells, 5 days) was 45.21 and the “% Viable Cells Emax” value ([1]; KARPAS-422 cells, 5 days) was 1.584%. The “% Viable Cells Sensitivity” value ([1]; KARPAS-422 cells, 5 days) was “High (highly sensitive to Compound 1 with less than 6% viable cells remaining (Emax) after treatment)”, the “Apoptosis AUC” value ([1]; KARPAS-422 cells, 5 days) was 682.2 and the “Apoptosis Sensitivity” value ([1]; KARPAS-422 cells, 5 days) was “High”. It also gave an EC50 [2, 15] of 262 nM, an Emax [2, 15] of 18.2% and an IC50 ([2]; Homo sapiens, 120 h, SU-DHL-16 cells, 5 days, read-out: % Viable Cells IC50) of 120 nM. The IC50 [2, 16] was 360000 nM, the “% Viable Cells AUC” value ([2]; SU-DHL-16 cells, 5 days) was 359.7 and the “% Viable Cells Emax” value ([2]; SU-DHL-16 cells, 5 days) was 30.33%. The “% Viable Cells Sensitivity” value ([2]; SU-DHL-16 cells, 5 days) was “Intermediate (intermediate sensitivity with 15% to 55% cell viability)”, the “Apoptosis AUC” value ([2]; SU-DHL-16 cells, 5 days) was 159.1 and the “Apoptosis Sensitivity” value ([2]; SU-DHL-16 cells, 5 days) was “Intermediate”. It also gave an EC50 [3, 17] of 2090 nM, an Emax [3, 17] of 29.4% and an IC50 ([3]; Homo sapiens, 120 h, OCI-Ly10 cells, 5 days, read-out: % Viable Cells IC50) of 50 nM. For the same compound, the IC50 [3, 18] was 267000 nM, the “% Viable Cells AUC” value ([3]; OCI-Ly10 cells, 5 days) was 267.3 and the “% Viable Cells Emax” value ([3]; OCI-Ly10 cells, 5 days) was 19.19%. The “% Viable Cells Sensitivity” value ([3]; OCI-Ly10 cells, 5 days) was “Intermediate (intermediate sensitivity with 15% to 55% cell viability)”, the “Apoptosis AUC” value ([3]; OCI-Ly10 cells, 5 days) was 187.7 and the “Apoptosis Sensitivity” value ([3]; OCI-Ly10 cells, 5 days) was “Intermediate”. The IC50 ([4]; 120 h, eighteen of the twenty three lines, five days of treatment) was 1 to 400 nM, the “viable cells remaining (Emax)” value ([4]; ten highly sensitive cell lines) was “less than 6%” and the IC50 ([5]; 120 h, 5 days, read-out: IC50) was over 10000 nM. For the same compound, the “Emax (% viable cells remaining)” value ([5]; relative to DMSO) was 74%, the IC50 ([6]; OCI-Ly10, 120 h, Oci-Ly 10 M-Parental, 5 days, read-out: IC50) was 6000 nM and the “Emax (% viable cells remaining)” value ([6]; Oci-Ly 10 M-Parental, relative to DMSO) was 47%. For the same compound, the IC50 ([7]; 120 h, 5 days, read-out: IC50) was 60 nM, the “Emax (% viable cells remaining)” value ([7]; relative to DMSO) was 19% and the IC50 [8, 19] was 100 nM. The “Emax (% viable cells remaining)” value ([8]; relative to DMSO) was 9%, the IC50 ([9]; 120 h, U2932 DoxoR, 5 days, read-out: IC50) was 1500 nM and the “Emax (% viable cells remaining)” value ([9]; U2932 DoxoR, relative to DMSO) was 31%. The “lower sensitivity in doxorubicin-resistant cells” value ([9]; U2932 doxorubicin-resistant vs M-parental) was 20 fold, the IC50 ([10]; OCI-Ly10, 120 h, Oci-Ly 10 DoxoR, 5 days, read-out: IC50) was 300 nM and the “greater sensitivity of resistant cells compared to parental cells” value ([10]; OCI-Ly10 doxorubicin-resistant vs parental) was “approximately 20 fold”. The “Emax (% viable cells remaining)” value ([10]; Oci-Ly 10 DoxoR, relative to DMSO) was 22%, the IC50 [11, 19] was 10 nM and the “Emax (% viable cells remaining)” value ([11]; relative to DMSO) was 23%. For the same compound, the IC50 ([12]; 120 h, SU-DHL-4 DoxoR, 5 days, read-out: IC50) was 100 nM, the “Emax (% viable cells remaining)” value ([12]; SU-DHL-4 DoxoR, relative to DMSO) was 8% and the “greater sensitivity in the doxorubicin-resistant cell line” value ([12]; SU-DHL-4 doxorubicin-resistant vs parental) was over 100 fold.
Work on `COc1cccc2c1C(=O)c1c(O)c3c(c(O)c1C2=O)C[C@@](O)(C(=O)CO)C[C@@H]3O[C@H]1C[C@H](N)[C@H](O)[C@H](C)O1` [Doxorubicin, reference compound] yielded an IC50 [1, 14] of 1000 nM, an IC50 [2, 16] of 1500 nM and an IC50 [3, 18] of 3000 nM. For the same compound, the “sensitivity of all DLBCL cell lines” value ([4]; panel of twenty three cell lines) was “strongly sensitive”, the IC50 ([5]; read-out: Doxorubicin IC50) was 10 nM and the IC50 ([6]; Oci-Ly10 M-Parental, read-out: Doxorubicin IC50) was 20 nM. For the same compound, the IC50 ([7]; read-out: Doxorubicin IC50) was 10 nM, the IC50 [8, 20] was 1600 nM and the IC50 ([9]; U2932 DoxoR, read-out: Doxorubicin IC50) was 1080 nM. For the same compound, the IC50 ([10]; Oci-Ly10 DoxoR, read-out: Doxorubicin IC50) was 1400 nM, the IC50 [11, 20] was 10 nM and the IC50 ([12]; SU-DHL-4 DoxoR, read-out: Doxorubicin IC50) was 1500 nM.
